system: ER-alpha MCF7; experiment: ER-alpha MCF7 HCS EC50; stated as measured by in vitro cell proliferation assays of Examples 902 and 903; assay type: cell-based; conditions: Homo sapiens, MCF7, MCF7 cells; Table 2
Method in brief: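 MCF7 cells seeded 1000-2000 cells/well for 16 h, then treated with nine-point 1:2 DMSO dilution series in quadruplicate at 37 °C, 5% CO2 for 4 days. Viable cells quantified by CellTiter-Glo ATP luminescence; EC50 calculated. Controls: fulvestrant at final 100 nM, DMSO 0.2% v/v.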

| Compound | EC50 [pM] |
| --- | --- |
| C[C@@H]1Cc2c([nH]c3ccccc23)[C@@H](c2c(F)cc(OCCN3CC(CF)C3)cc2F)N1C[C@H](CO)CF [Example 402, (R)-3-((1R,3R)-1-(2,6-difluoro-4-(2-(3-(fluoromethyl)azetidin-1-yl)ethoxy)phenyl)-3-methyl-3,4-dihydro-1H-pyrido[3,4-b]indol-2(9H)-yl)-2-(fluoromethyl)propan-1-ol] | 32 |
| C[C@@H]1Cc2c([nH]c3ccccc23)[C@@H](c2c(F)cc(OCCN3CC(CF)C3)cc2F)N1C[C@@H](CO)CF [Example 403, (S)-3-((1R,3R)-1-(2,6-difluoro-4-(2-(3-(fluoromethyl)azetidin-1-yl)ethoxy)phenyl)-3-methyl-3,4-dihydro-1H-pyrido[3,4-b]indol-2(9H)-yl)-2-(fluoromethyl)propan-1-ol] | 130 |
| C[C@@H]1Cc2c([nH]c3ccccc23)[C@@H](c2c(F)cc(N(C)C3CN(CCCF)C3)cc2F)N1CC(C)(C)F [Example 404, N-(3,5-difluoro-4-((1R,3R)-2-(2-fluoro-2-methylpropyl)-3-methyl-2,3,4,9-tetrahydro-1H-pyrido[3,4-b]indol-1-yl)phenyl)-1-(3-fluoropropyl)-N-methylazetidin-3-amine] | 745 |
| CC1(C)Cc2c([nH]c3ccccc23)[C@H](c2c(F)cc(NC3CN(CCCF)C3)cc2F)N1CC(F)F [Example 406, (S)-N-(4-(2-(2,2-difluoroethyl)-3,3-dimethyl-2,3,4,9-tetrahydro-1H-pyrido[3,4-b]indol-1-yl)-3,5-difluorophenyl)-1-(3-fluoropropyl)azetidin-3-amine] | 1800 |
| C[C@@H]1Cc2c([nH]c3cccc(F)c23)[C@@H](c2c(F)cc(NC3CN(CCCF)C3)cc2F)N1CC(F)(F)F [Example 407, N-(3,5-difluoro-4-((1R,3R)-5-fluoro-3-methyl-2-(2,2,2-trifluoroethyl)-2,3,4,9-tetrahydro-1H-pyrido[3,4-b]indol-1-yl)phenyl)-1-(3-fluoropropyl)azetidin-3-amine] | 120 |
| C[C@H]1Cc2c([nH]c3cccc(F)c23)[C@H](c2c(F)cc(NC3CN(CCCF)C3)cc2F)N1CC(F)(F)F [Example 408, N-(3,5-difluoro-4-((1S,3S)-5-fluoro-3-methyl-2-(2,2,2-trifluoroethyl)-2,3,4,9-tetrahydro-1H-pyrido[3,4-b]indol-1-yl)phenyl)-1-(3-fluoropropyl)azetidin-3-amine] | 6300 |
| C[C@@H]1Cc2c([nH]c3c(F)cccc23)[C@@H](c2c(F)cc(NC3CN(CCCF)C3)cc2F)N1CC(F)(F)F [Example 410, N-(3,5-difluoro-4-((1R,3R)-8-fluoro-3-methyl-2-(2,2,2-trifluoroethyl)-2,3,4,9-tetrahydro-1H-pyrido[3,4-b]indol-1-yl)phenyl)-1-(3-fluoropropyl)azetidin-3-amine] | 120 |
| C[C@@H]1Cc2c([nH]c3ccccc23)[C@@H](c2c(F)cc(OC3CN(CCCF)C3)cc2F)N1CC1(F)COC1 [Example 411, (1R,3R)-1-(2,6-difluoro-4-(1-(3-fluoropropyl)azetidin-3-yloxy)phenyl)-2-((3-fluorooxetan-3-yl)methyl)-3-methyl-2,3,4,9-tetrahydro-1H-pyrido[3,4-b]indole] | 70 |
| C[C@H]1Cc2c([nH]c3cc(F)ccc23)[C@H](c2c(F)cc(NC3CN(CCCF)C3)cc2F)N1C[C@@](C)(F)CO [Example 415, (R)-3-((1S,3S)-1-(2,6-difluoro-4-((1-(3-fluoropropyl)azetidin-3-yl)amino)phenyl)-7-fluoro-3-methyl-3,4-dihydro-1H-pyrido[3,4-b]indol-2(9H)-yl)-2-fluoro-2-methylpropan-1-ol] | 9500 |
| C[C@@H]1Cc2c([nH]c3cccc(F)c23)[C@@H](c2c(F)cc(NC3CN(CCCF)C3)cc2F)N1CC(F)(F)CO [Example 416, 3-((1R,3R)-1-(2,6-difluoro-4-((1-(3-fluoropropyl)azetidin-3-yl)amino)phenyl)-5-fluoro-3-methyl-3,4-dihydro-1H-pyrido[3,4-b]indol-2(9H)-yl)-2,2-difluoropropan-1-ol] | 24 |
| C[C@H]1Cc2c([nH]c3cccc(F)c23)[C@H](c2c(F)cc(NC3CN(CCCF)C3)cc2F)N1CC(F)(F)CO [Example 417, 3-((1S,3S)-1-(2,6-difluoro-4-((1-(3-fluoropropyl)azetidin-3-yl)amino)phenyl)-5-fluoro-3-methyl-3,4-dihydro-1H-pyrido[3,4-b]indol-2(9H)-yl)-2,2-difluoropropan-1-ol] | 3300 |
| C[C@@H]1Cc2c([nH]c3ccccc23)[C@@H](c2c(F)cc(NC3CN(CCCF)C3)cc2F)N1C[C@@](F)(C#N)CO [Example 418, (R)-3-((1R,3R)-1-(2,6-difluoro-4-((1-(3-fluoropropyl)azetidin-3-yl)amino)phenyl)-3-methyl-3,4-dihydro-1H-pyrido[3,4-b]indol-2(9H)-yl)-2-fluoro-2-(hydroxymethyl) propanenitrile] | 33 |
| C[C@@H]1Cc2c([nH]c3ccccc23)[C@@H](c2c(F)cc(NC3CN(CCCF)C3)cc2F)N1C[C@](F)(C#N)CO [Example 419, (S)-3-((1R,3R)-1-(2,6-difluoro-4-((1-(3-fluoropropyl)azetidin-3-yl)amino)phenyl)-3-methyl-3,4-dihydro-1H-pyrido[3,4-b]indol-2(9H)-yl)-2-fluoro-2-(hydroxymethyl) propanenitrile] | 26 |
| CC1(C)Cc2c([nH]c3ccccc23)[C@@H](c2c(F)cc(NC3CN(CCCF)C3)cc2F)N1CC(F)(F)CO [Example 420, (R)-3-(1-(2,6-difluoro-4-((1-(3-fluoropropyl)azetidin-3-yl)amino)phenyl)-3,3-dimethyl-3,4-dihydro-1H-pyrido[3,4-b]indol-2(9H)-yl)-2,2-difluoropropan-1-ol] | 117 |
| C[C@H]1Cc2c([nH]c3c(F)cccc23)[C@H](c2c(F)cc(NC3CN(CCCF)C3)cc2F)N1CC(F)(F)CO [Example 422, 3-((1S,3S)-1-(2,6-difluoro-4-((1-(3-fluoropropyl)azetidin-3-yl)amino)phenyl)-8-fluoro-3-methyl-3,4-dihydro-1H-pyrido[3,4-b]indol-2(9H)-yl)-2,2-difluoropropan-1-ol] | 37100 |
| C[C@@H]1Cc2c([nH]c3c(F)cc(F)cc23)[C@@H](c2c(F)cc(OC3CN(CCCF)C3)cc2F)N1CC(C)(C)F [Example 424, (1R,3R)-1-(2,6-difluoro-4-(1-(3-fluoropropyl)azetidin-3-yloxy)phenyl)-6,8-difluoro-2-(2-fluoro-2-methylpropyl)-3-methyl-2,3,4,9-tetrahydro-1H-pyrido[3,4-b]indole] | 500 |

Further molecules by falling EC50, results first:

| EC50 [pM] | Compound |
| --- | --- |
| 26000 | C[C@H]1Cc2c([nH]c3c(F)cccc23)[C@H](c2c(F)cc(NC3CN(CCCF)C3)cc2F)N1CC(F)(F)F [Example 409, N-(3,5-difluoro-4-((1S,3S)-8-fluoro-3-methyl-2-(2,2,2-trifluoroethyl)-2,3,4,9-tetrahydro-1H-pyrido[3,4-b]indol-1-yl)phenyl)-1-(3-fluoropropyl)azetidin-3-amine] |
| 2400 | C[C@H]1Cc2c([nH]c3cccc(F)c23)[C@H](c2c(F)cc(NC3CN(CCCF)C3)cc2F)N1C[C@](C)(F)CO [Example 401, (S)-3-((1S,3S)-1-(2,6-difluoro-4-((1-(3-fluoropropyl)azetidin-3-yl)amino)phenyl)-5-fluoro-3-methyl-3,4-dihydro-1H-pyrido[3,4-b]indol-2(9H)-yl)-2-fluoro-2-methylpropan-1-ol] |
| 1300 | C[C@H]1Cc2c([nH]c3cc(F)ccc23)[C@H](c2c(F)cc(NC3CN(CCCF)C3)cc2F)N1C[C@](C)(F)CO [Example 412, (S)-3-((1S,3S)-1-(2,6-difluoro-4-((1-(3-fluoropropyl)azetidin-3-yl)amino)phenyl)-7-fluoro-3-methyl-3,4-dihydro-1H-pyrido[3,4-b]indol-2(9H)-yl)-2-fluoro-2-methylpropan-1-ol] |
| 230 | CC1(C)Cc2c([nH]c3ccccc23)[C@@H](c2c(F)cc(NC3CN(CCCF)C3)cc2F)N1CC(F)F [Example 405, (R)-N-(4-(2-(2,2-difluoroethyl)-3,3-dimethyl-2,3,4,9-tetrahydro-1H-pyrido[3,4-b]indol-1-yl)-3,5-difluorophenyl)-1-(3-fluoropropyl)azetidin-3-amine] |
| 146 | CC1(C)Cc2c([nH]c3ccccc23)[C@H](c2c(F)cc(NC3CN(CCCF)C3)cc2F)N1CC(F)(F)CO [Example 421, (S)-3-(1-(2,6-difluoro-4-((1-(3-fluoropropyl)azetidin-3-yl)amino)phenyl)-3,3-dimethyl-3,4-dihydro-1H-pyrido[3,4-b]indol-2(9H)-yl)-2,2-difluoropropan-1-ol] |
| 120 | C[C@@H]1Cc2c([nH]c3cc(F)ccc23)[C@@H](c2c(F)cc(NC3CN(CCCF)C3)cc2F)N1C[C@](C)(F)CO [Example 414, (S)-3-((1R,3R)-1-(2,6-difluoro-4-((1-(3-fluoropropyl)azetidin-3-yl)amino)phenyl)-7-fluoro-3-methyl-3,4-dihydro-1H-pyrido[3,4-b]indol-2(9H)-yl)-2-fluoro-2-methylpropan-1-ol] |
| 89 | C[C@@H]1Cc2c([nH]c3c(F)cccc23)[C@@H](c2c(F)cc(NC3CN(CCCF)C3)cc2F)N1CC(F)(F)CO [Example 423, 3-((1R,3R)-1-(2,6-difluoro-4-((1-(3-fluoropropyl)azetidin-3-yl)amino)phenyl)-8-fluoro-3-methyl-3,4-dihydro-1H-pyrido[3,4-b]indol-2(9H)-yl)-2,2-difluoropropan-1-ol] |
| 18 | C[C@@H]1Cc2c([nH]c3cc(F)ccc23)[C@@H](c2c(F)cc(NC3CN(CCCF)C3)cc2F)N1C[C@@](C)(F)CO [Example 413, (R)-3-((1R,3R)-1-(2,6-difluoro-4-((1-(3-fluoropropyl)azetidin-3-yl)amino)phenyl)-7-fluoro-3-methyl-3,4-dihydro-1H-pyrido[3,4-b]indol-2(9H)-yl)-2-fluoro-2-methylpropan-1-ol] |
